{"source": "patent US20090186811A1", "about": "“Y2 Selective Receptor Agonists for Therapeutic Interventions” (priority 2004, published 2009)", "key": {"[1]": {"target": "T1, human Y5 receptor (Homo sapiens, UniProt Q15761)", "T1 construct": "expressed in transfected cells; host or cells: COS-7", "T1 sequence (Q15761 whole entry)": "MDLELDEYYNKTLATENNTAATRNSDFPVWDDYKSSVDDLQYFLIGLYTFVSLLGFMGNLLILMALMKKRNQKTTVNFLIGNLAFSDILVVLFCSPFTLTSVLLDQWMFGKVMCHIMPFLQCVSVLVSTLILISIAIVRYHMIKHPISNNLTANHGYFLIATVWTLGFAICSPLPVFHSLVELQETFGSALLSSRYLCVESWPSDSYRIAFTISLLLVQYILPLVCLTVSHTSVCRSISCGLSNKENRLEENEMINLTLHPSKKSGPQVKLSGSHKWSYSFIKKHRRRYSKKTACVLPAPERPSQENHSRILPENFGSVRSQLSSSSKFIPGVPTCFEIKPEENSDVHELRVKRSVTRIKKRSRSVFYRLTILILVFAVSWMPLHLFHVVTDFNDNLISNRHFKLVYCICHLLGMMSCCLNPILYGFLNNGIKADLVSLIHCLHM", "assay": "Human Y5 receptor potency assay (inositol phosphate turnover)", "format": "cell-based", "description": "(§1) Potency of the test compounds on the human Y2 receptor is determined by performing dose-response experiments in COS-7 cells transiently transfected with the human Y2 receptor as well as a promiscuous G protein, Gqi5 which ensures that the Y2 receptor couples through a Gq pathway leading to an increase in inositol phosphate turnover.\n(§2) Cells are washed twice in buffer, 20 mM HEPES, pH 7.4, supplemented with 140 mM NaCl, 5 mM KCl, 1 mM MgSO4, 1 mM CaCl2, 10 mM glucose, 0.05% (w/v) bovine serum; and are incubated in 0.5 ml buffer supplemented with 10 mM LiCl at 37 C for 30 min. After stimulation with various concentrations of peptide for 45 min at 37 C, cells are extracted with 10% ice-cold perchloric acid followed by incubation on ice for 30 min. The resulting supernatants are neutralized with KOH in HEPES buffer, and the generated [3H]-inositol phosphate are purified on Bio-Rad AG 1-X8 anion-exchange resin and counted in a beta counter. Determinations are made in duplicates. EC50 values were calculated using a standard pharmacological data handling software, Prism 3.0 (graphPad Sofware, San Diego, USA).\nProtocol as for the Y2 potency assay, except that human Y5-transformed COS-7 cells are used"}, "[2]": {"target": "T2, human Y1 receptor (Homo sapiens, UniProt P25929)", "T2 construct": "expressed in transfected cells; host or cells: COS-7", "T2 sequence (P25929 1-384)": "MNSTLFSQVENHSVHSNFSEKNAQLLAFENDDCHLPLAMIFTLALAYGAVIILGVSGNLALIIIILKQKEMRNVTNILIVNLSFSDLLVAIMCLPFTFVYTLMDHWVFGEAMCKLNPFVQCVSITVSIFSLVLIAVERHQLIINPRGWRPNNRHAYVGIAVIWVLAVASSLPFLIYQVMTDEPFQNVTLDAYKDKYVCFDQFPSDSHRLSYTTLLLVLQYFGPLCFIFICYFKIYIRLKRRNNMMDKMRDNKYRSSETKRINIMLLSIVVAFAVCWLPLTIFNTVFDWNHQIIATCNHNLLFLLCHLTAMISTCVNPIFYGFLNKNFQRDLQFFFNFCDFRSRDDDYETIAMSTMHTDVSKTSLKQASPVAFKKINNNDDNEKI", "assay": "Human Y1 receptor affinity assay (competition binding)", "description": "(§3) Transfected COS-7 cells are transferred to culture plates one day after transfection at a density of 40×10^3 cells per well aiming at 5-8% binding of the radioactive ligand. […] Determinations are made in duplicate. […] EC50 values were calculated using a standard pharmacological data handling software, Prism 3.0 (graphPad Sofware, San Diego, USA)."}, "[3]": {"target": "T2, human Y1 receptor", "assay": "Human Y1 receptor potency assay (inositol phosphate turnover)", "format": "cell-based", "description": "as §1, §2\nProtocol as for the Y2 potency assay, except that human Y1-transformed COS-7 cells are used."}, "[4]": {"target": "T1, human Y5 receptor", "assay": "Human Y5 receptor affinity assay (competition binding)", "description": "as §3"}, "[5]": {"target": "T3, human Y2 receptor (Homo sapiens, UniProt P49146)", "T3 construct": "expressed in transfected cells; host or cells: COS-7", "T3 sequence (P49146 1-381)": "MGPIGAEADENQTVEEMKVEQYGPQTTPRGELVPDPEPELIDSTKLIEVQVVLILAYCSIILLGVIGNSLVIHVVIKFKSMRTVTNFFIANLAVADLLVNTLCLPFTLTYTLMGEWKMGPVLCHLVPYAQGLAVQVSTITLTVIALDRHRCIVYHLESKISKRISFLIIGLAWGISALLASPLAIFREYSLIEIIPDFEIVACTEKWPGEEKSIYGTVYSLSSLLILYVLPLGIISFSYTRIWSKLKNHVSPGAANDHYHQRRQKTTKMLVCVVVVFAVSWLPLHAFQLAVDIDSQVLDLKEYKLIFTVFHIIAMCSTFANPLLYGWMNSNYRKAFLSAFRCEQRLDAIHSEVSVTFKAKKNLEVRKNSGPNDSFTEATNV", "assay": "Human Y2 receptor affinity assay (competition binding)", "description": "as §3"}, "[6]": {"target": "T4, human Y4 receptor (Homo sapiens, UniProt P50391)", "T4 construct": "expressed in transfected cells; host or cells: COS-7", "T4 sequence (P50391 whole entry)": "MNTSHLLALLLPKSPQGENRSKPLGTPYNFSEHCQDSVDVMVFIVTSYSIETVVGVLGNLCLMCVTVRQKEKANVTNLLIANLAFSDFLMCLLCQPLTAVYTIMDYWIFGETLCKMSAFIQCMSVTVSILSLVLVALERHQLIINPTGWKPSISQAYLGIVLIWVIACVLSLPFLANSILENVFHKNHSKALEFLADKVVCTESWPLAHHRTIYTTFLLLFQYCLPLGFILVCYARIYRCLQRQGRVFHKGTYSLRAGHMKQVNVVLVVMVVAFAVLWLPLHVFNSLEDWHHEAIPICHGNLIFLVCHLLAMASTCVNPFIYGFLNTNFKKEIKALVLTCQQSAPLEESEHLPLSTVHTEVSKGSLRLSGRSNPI", "assay": "Human Y4 receptor affinity assay (competition binding)", "description": "as §3"}, "[7]": {"target": "T3, human Y2 receptor", "assay": "Human Y2 receptor potency assay (inositol phosphate turnover)", "format": "cell-based", "conditions": "Y2 EC50, COS-7 cells with human Y2 and Gqi5, inositol phosphate turnover; Table 2", "description": "as §1, §2"}, "[8]": {"target": "T4, human Y4 receptor", "assay": "Human Y4 receptor potency assay (inositol phosphate turnover)", "format": "cell-based", "description": "as §1, §2\nProtocol as for the Y2 potency assay, except that human Y4-transformed COS-7 cells are used."}, "[9]": {"tested_on": "rats", "conditions": "rat; cited from earlier work"}}, "note": "Positions of bridges follow the written chain, without caps; N, C: chain ends. Non-standard residues stand in square brackets, D forms with d. Residues, ends and D or L forms follow the SMILES beside them. Aoc = NCCCCCCCC(=O)O", "data": [{"molecule": "CC(C)C[C@H](NC(=O)[C@H](Cc1ccc(O)cc1)NC(=O)[C@H](Cc1c[nH]cn1)NC(=O)[C@H](CCCNC(=N)N)NC(=O)[C@H](CCCCN)NC(=O)[C@H](CCCCN)NC(=O)[C@H](CCCCN)NC(=O)[C@H](CCCCN)NC(=O)[C@H](CCCCN)NC(=O)[C@@H](N)CCCCN)C(=O)N[C@@H](CC(N)=O)C(=O)N[C@@H](CC(C)C)C(=O)N[C@H](C(=O)N[C@H](C(=O)N[C@@H](CCCNC(=N)N)C(=O)N[C@@H](CCC(N)=O)C(=O)N[C@@H](CCCNC(=N)N)C(=O)N[C@@H](Cc1ccc(O)cc1)C(N)=O)[C@@H](C)O)C(C)C", "note": "[SEQ ID NO: 11, Lys-Lys-Lys-Lys-Lys-Lys-PYY25-36]", "values": [{"measurement": "EC50", "setting": "[1]", "value": "> 1000", "unit": "nM"}]}, {"molecule": "CC[C@H](C)[C@H](NC(=O)[C@H](Cc1ccc(O)cc1)NC(=O)[C@H](CCCNC(=N)N)NC(=O)[C@H](CCCNC(=N)N)NC(=O)[C@H](CC(C)C)NC(=O)[C@H](CC(=O)O)NC(=O)[C@H](C)NC(=O)[C@H](C)NC(=O)[C@H](Cc1ccc(O)cc1)NC(=O)[C@H](CCC(N)=O)NC(=O)[C@H](C)NC(=O)[C@H](CCSC)NC(=O)[C@H](CCC(N)=O)NC(=O)[C@H](CCC(=O)O)NC(=O)[C@@H]1CCCN1C(=O)[C@@H](NC(=O)[C@H](C)NC(=O)[C@H](CC(N)=O)NC(=O)[C@H](CC(=O)O)NC(=O)CNC(=O)[C@@H]1CCCN1C(=O)[C@H](Cc1ccc(O)cc1)NC(=O)[C@@H](NC(=O)[C@@H]1CCCN1C(=O)[C@H](CCCCN)NC(=O)[C@H](CC(C)C)NC(=O)[C@@H]1CCCN1C(=O)[C@H](C)N)C(C)C)[C@@H](C)O)C(=O)N[C@@H](CC(N)=O)C(=O)N[C@@H](CCSC)C(=O)N[C@@H](CC(C)C)C(=O)N[C@H](C(=O)N[C@@H](CCCNC(=N)N)C(=O)N[C@@H](CCC(N)=O)C(=O)N[C@@H](CCCNC(=N)N)C(=O)N[C@@H](Cc1ccc(O)cc1)C(N)=O)[C@@H](C)O", "note": "[SEQ ID NO: 12, [Lys4,Gln34]PP]", "values": [{"measurement": "IC50", "setting": "[2]", "value": "> 1000", "unit": "nM"}]}, {"molecule": "CC[C@H](C)[C@@H]1NC(=O)[C@@H](NC(=O)[C@@H](N)Cc2ccc(O)cc2)CSSC[C@H](C(=O)N[C@@H](CC(C)C)C(=O)N[C@@H](CC(N)=O)C(=O)N[C@@H](CC(C)C)C(=O)N[C@H](C(=O)N[C@H](C(=O)N[C@@H](CCCNC(=N)N)C(=O)N[C@@H](CCC(N)=O)C(=O)N[C@@H](CCCNC(=N)N)C(=O)N[C@@H](Cc2ccc(O)cc2)C(N)=O)[C@@H](C)O)C(C)C)NC(=O)[C@H](Cc2c[nH]cn2)NC(=O)[C@H](CCCNC(=N)N)NC(=O)CCCCCCCNC(=O)[C@H](CCCCN)NC1=O", "note": "[SEQ ID NO: 16, [Cys2,Aoc5-24,D-Cys27]PYY] (H-YCIK[Aoc]RH[dC]LNLVTRQRY-NH2; disulfide 2-8; N-terminus assumed)", "values": [{"measurement": "EC50", "setting": "[1]", "value": "> 1000", "unit": "nM"}, {"measurement": "stimulation of the Y5 receptor", "setting": "[1]; at a concentration of 1 μM", "value": "stimulates neither"}, {"measurement": "EC50", "setting": "[3]", "value": "> 1000", "unit": "nM"}, {"measurement": "stimulation of the Y1 receptor", "setting": "[3]; at 1 μM", "value": "does not even at 1 μM stimulate"}, {"measurement": "IC50", "setting": "[4]", "value": "> 1000", "unit": "nM"}, {"measurement": "IC50", "setting": "[5]", "value": 0.87, "unit": "nM"}, {"measurement": "IC50", "setting": "[2]", "value": "> 1000", "unit": "nM"}, {"measurement": "IC50", "setting": "[6]", "value": 267, "unit": "nM"}, {"measurement": "EC50", "setting": "[7]", "value": 3.7, "unit": "nM"}, {"measurement": "EC50", "setting": "[8]", "value": "> 1000", "unit": "nM"}, {"measurement": "stimulation of the Y4 receptor", "setting": "[8]; at a concentration of 1 μM", "value": "stimulates neither"}]}, {"molecule": "[Ahx5-24, gamma-Glu2-eps-Lys30]NPY", "values": [{"measurement": "blood pressure increase in vivo", "setting": "[9]", "value": "not to induce blood pressure increases"}]}]}
